Experimental data from ChEMBL document CHEMBL1201862, “PubChem BioAssay data set” (2004).
Calls of active or inactive are those of the source.

Legend:
HEK293 [1] = assay: NOD1 signaling inhibitors, primary screen, cell-based, luminescence, uHTS (AID 1578); type: functional; conditions: Homo sapiens
HEK293 [2] = assay: NOD2 signaling inhibitors in MDP-stimulated cells, cell-based, uHTS, luminescence (AID 2001); type: functional; conditions: Homo sapiens
HEK293 [3] = assay: cells; type: functional, cell-based; conditions: Homo sapiens
HEK293 [4] = assay: cells; conditions: Homo sapiens
[5] = target: T1, Nucleotide-binding oligomerization domain-containing protein 2 (Homo sapiens, UniProt Q9HC29); assay: PubChem AID 2334; type: functional
[6] = target: T1, Nucleotide-binding oligomerization domain-containing protein 2; assay: NOD2 signaling inhibitors, cell-based, luminescence, uHTS, HEK293 (AID 1566); type: functional
Tumor necrosis factor = Tumor necrosis factor (Homo sapiens, UniProt P01375); assay: TNFa-triggered NF-kB activation inhibitors, SAR follow-up, cell-based, revised (AID 2337); type: functional
HEK293 [7] = assay: cells; type: functional, cell-based; conditions: Homo sapiens; remark: listed apart in the source
[8] = target: T2, Nucleotide-binding oligomerization domain-containing protein 1 (Homo sapiens, UniProt Q9Y239); assay: NOD1 signaling inhibitors, SAR follow-up, revised (AID 2333); type: functional
T2 sequence (Q9Y239 whole entry): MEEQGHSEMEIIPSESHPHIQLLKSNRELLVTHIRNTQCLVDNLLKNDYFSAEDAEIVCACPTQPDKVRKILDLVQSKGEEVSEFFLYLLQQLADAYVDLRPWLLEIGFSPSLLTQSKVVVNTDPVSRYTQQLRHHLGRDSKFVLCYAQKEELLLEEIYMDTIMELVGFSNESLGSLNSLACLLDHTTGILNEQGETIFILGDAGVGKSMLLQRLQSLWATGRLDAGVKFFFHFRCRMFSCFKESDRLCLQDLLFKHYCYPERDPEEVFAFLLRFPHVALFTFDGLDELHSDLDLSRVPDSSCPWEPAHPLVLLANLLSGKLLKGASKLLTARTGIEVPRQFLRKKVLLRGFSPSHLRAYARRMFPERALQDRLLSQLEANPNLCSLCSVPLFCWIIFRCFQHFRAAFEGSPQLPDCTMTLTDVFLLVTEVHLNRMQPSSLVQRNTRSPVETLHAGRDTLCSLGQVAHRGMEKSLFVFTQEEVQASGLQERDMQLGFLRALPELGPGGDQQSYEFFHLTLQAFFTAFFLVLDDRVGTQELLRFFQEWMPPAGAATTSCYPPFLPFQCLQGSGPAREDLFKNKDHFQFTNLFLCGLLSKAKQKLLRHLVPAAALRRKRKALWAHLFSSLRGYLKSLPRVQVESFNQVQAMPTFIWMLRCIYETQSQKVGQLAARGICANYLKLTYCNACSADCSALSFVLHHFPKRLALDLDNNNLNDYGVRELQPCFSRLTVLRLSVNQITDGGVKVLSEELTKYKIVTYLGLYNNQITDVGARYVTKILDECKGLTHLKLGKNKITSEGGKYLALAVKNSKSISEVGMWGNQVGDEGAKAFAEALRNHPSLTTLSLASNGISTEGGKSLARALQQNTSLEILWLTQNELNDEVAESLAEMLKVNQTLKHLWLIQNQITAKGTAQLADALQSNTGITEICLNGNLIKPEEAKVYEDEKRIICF

HEK293 [9] = assay: cells; type: functional, cell-based; conditions: Homo sapiens; remark: listed apart in the source
Troponin, cardiac muscle = Troponin, cardiac muscle (Homo sapiens, UniProt P19429+P45379+P63316); assay: Fluorescence-based biochemical high throughput dose response assay for activators of the calcium sensitivity of cardiac Regulated Thin Filaments (RTF). [Related pubchem assays (depositor defined):AID493008, AID493018, AID504382, AID504383]; type: protein-complex assay
[10] = target: DNA damage-inducible transcript 3 protein (Mus musculus, UniProt P35639); type: functional, Cricetulus griseus
[11] = Luminescence Cell-Based Dose Response HTS to Identify Activators of Luciferase Translation or Activity in H4 […] Cells. [Related pubchem assays: 1829 (Project Summary), 1814 (Primary HTS)]; type: functional
[12] = target: T3, Heat shock factor protein 1 (Mus musculus, UniProt P38532); assay: inhibition of MG132-induced HSE-luciferase signal, confirmation, cell-based, NIH3T3, luminescence, dose retest (AID 2382); type: functional;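 further: NIH3T3 fibroblasts with HSF1-driven luciferase reporter stressed by proteasome inhibitor MG132; luminescence from HSF1-driven luciferase expression after 8 hours of MG132 stress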
T3 sequence (P38532 whole entry): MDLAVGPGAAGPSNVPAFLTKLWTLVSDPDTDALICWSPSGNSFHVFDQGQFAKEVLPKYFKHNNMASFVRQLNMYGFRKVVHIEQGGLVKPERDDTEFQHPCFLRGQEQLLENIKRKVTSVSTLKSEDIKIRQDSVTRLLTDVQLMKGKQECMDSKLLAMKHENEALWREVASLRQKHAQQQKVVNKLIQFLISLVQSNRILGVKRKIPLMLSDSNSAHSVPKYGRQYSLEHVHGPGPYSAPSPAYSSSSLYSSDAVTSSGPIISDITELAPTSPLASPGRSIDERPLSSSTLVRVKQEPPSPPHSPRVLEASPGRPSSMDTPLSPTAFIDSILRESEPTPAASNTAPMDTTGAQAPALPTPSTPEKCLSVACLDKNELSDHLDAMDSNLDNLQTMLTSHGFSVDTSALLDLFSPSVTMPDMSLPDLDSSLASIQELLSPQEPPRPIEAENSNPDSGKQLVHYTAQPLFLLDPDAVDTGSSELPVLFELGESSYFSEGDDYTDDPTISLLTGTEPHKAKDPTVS

cells = type: functional, cell-based; conditions: HEK-CNG
Galanin receptor type 3 = Galanin receptor type 3 (Homo sapiens, UniProt O60755); assay: Fluorescence-based cell-based primary high throughput dose response assay to identify antagonists of the Galanin Receptor 3 (GalR3).; type: functional
[13] = Fluorescence-based cell-based high throughput dose response assay for inhibitors of the interaction of nucleotide-binding oligomerization domain containing 2 (NOD2) and the receptor-interacting serine-threonine kinase 2 (RIPK2).; type: functional; conditions: Homo sapiens
[14] = Luminescence Cell-Based Dose Confirmation HTS to Identify Activators of 5'UTR Stem-Loop Driven Alpha-Synuclein mRNA Translation in H4 Neuroglioblastoma Cells. [Related pubchem assays: 1829 (Project Summary), 1814 (Primary HTS)]; type: functional
Paired box protein Pax-8 = Paired box protein Pax-8 (Homo sapiens, UniProt Q06710); assay: inhibitors of PAX8-driven TPO luciferase reporter, dose response, RMG-I cells, cherry-pick (AID 687027); type: functional, cell-based;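 further: luciferase reporter driven by Pax8 target thyroperoxidase promoter measured by SteadyGlo luminescence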
H4 = assay: Luminescence Cell-Based Dose Response HTS to Identify Activators of 5'UTR Stem-Loop Driven Prion Protein mRNA Translation in H4 Neuroglioblastoma Cells. [Related pubchem assays: 1829 (Project Summary), 1814 (Primary HTS)]; type: functional; conditions: Homo sapiens
A-375 = assay: A375 melanoma cell viability reduction, dose response, counter-screen for MITF modulator project, cherry-pick samples, set 2 (AID 540335); type: functional, cell-based; conditions: Homo sapiens
[15] = target: T4, Microphthalmia-associated transcription factor (Homo sapiens, UniProt O75030); assay: TRPM1 promoter luciferase signal decrease, dose response, MITF inhibitor project, cell-based, SK-MEL-5, cherry-picked, set 3 (AID 493073); type: functional
T4 sequence (O75030 whole entry): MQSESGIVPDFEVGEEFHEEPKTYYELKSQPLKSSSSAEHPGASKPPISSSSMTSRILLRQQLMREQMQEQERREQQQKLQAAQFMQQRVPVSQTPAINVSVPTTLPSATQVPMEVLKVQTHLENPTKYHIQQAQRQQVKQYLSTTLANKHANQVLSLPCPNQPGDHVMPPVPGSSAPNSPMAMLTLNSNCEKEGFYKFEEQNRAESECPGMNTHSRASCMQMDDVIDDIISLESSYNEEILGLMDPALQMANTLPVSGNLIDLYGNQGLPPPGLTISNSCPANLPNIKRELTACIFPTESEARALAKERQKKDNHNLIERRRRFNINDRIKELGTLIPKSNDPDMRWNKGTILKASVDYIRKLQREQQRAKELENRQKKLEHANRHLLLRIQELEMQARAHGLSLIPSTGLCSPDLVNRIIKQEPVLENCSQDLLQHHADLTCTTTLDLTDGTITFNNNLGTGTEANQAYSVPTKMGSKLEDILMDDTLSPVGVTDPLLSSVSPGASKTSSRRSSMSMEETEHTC

[16] = target: G-protein coupled receptor 55 (Homo sapiens, UniProt Q9Y2T6); assay: GPR55 antagonists blocking LPI-driven arrestin recruitment, primary screen, imaging, U2OS, beta-arrestin-GFP, LPI agonist (AID 2013); type: functional;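 further: antagonist potency measured as reduced agonist-driven arrestin aggregation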
[17] = target: T5, High affinity choline transporter 1 (Homo sapiens, UniProt Q9GZV3); assay: CHT inhibitors, dose response, cell-based, 5-point CRC, membrane potential dye (AID 504840); type: functional
T5 sequence (Q9GZV3 whole entry): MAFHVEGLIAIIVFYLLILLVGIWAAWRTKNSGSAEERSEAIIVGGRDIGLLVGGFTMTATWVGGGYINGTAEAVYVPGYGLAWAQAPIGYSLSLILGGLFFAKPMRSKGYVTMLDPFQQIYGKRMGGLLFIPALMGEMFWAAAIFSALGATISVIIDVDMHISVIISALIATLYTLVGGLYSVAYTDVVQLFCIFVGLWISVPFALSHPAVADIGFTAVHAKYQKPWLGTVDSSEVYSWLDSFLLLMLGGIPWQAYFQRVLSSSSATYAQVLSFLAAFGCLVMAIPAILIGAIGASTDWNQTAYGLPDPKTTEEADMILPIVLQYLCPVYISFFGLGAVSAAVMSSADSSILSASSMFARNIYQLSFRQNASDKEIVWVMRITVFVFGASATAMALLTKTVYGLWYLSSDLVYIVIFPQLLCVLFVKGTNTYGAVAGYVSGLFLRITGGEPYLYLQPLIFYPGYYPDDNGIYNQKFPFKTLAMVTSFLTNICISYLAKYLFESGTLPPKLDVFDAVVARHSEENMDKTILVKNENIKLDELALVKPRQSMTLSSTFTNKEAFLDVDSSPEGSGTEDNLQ

Coagulation factor XII = target: T6, Coagulation factor XII (Homo sapiens, UniProt P00748); type: functional;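 further: activated factor XIIa alpha cleaving a fluorogenic AMC peptide substrate; inhibitor potency from loss of enzyme activity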
T6 sequence (P00748 whole entry): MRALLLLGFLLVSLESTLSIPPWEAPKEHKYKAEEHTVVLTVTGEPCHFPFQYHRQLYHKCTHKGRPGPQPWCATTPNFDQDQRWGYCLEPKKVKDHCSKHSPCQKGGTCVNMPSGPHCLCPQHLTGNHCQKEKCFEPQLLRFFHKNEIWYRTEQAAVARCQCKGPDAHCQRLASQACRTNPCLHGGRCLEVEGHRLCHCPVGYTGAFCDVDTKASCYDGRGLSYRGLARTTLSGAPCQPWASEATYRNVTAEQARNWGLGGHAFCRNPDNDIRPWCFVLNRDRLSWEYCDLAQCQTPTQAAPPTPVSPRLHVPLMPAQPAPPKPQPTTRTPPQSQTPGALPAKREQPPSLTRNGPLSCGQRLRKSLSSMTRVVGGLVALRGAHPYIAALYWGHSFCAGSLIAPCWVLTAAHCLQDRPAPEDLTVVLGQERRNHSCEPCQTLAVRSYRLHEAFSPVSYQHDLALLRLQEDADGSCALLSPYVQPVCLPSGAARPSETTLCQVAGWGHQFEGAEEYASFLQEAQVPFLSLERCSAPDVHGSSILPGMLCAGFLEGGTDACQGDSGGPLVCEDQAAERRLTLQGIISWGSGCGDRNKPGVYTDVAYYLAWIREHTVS

## Cc1c(C(=O)OCC(=O)c2c(N)n(CC(C)C)c(=O)n(C)c2=O)oc2ccccc12
HEK293 [1]
  EC50: 15.7 µM (active)
HEK293 [2]
  IC50: 19 µM (inactive)
HEK293 [3]
  IC50: > 20 µM (inactive)
HEK293 [4]
  IC50: > 20 µM (inactive)
[5]
  IC50: 14.9 µM (active)
[6]
  EC50: > 20 µM (inactive)
Tumor necrosis factor
  IC50: > 20 µM (inactive)
HEK293 [7]
  IC50: > 20 µM (inactive)
[8]
  IC50: 17.4 µM (active)
HEK293 [9]
  IC50: > 20 µM (inactive)

## COCCn1c(=O)c2ccccc2c2ccccc2c1=O
Troponin, cardiac muscle
  EC50: > 71.5 µM (inactive)

## CCOc1ccc2nc(NC(=O)CSc3nc4c(c(=O)n(C)c(=O)n4C)n3C(C)C)sc2c1
[10]
  Absolute IC50 (CHOP): 10 µM

## CCCCn1c(=O)[nH]c(=O)c2c1nc(Cn1ncc(Cl)c(Cl)c1=O)n2CCC
[11]
  EC50: > 120 µM (not active)
[12]
  EC50: 2.89 µM (active)
cells
  EC50: > 29.9 µM (inactive)
Galanin receptor type 3
  IC50: > 3.32 µM (active)
[13]
  IC50: 2.15 µM (active)
[14]
  EC50: > 120 µM (not active)
Paired box protein Pax-8
  AC50: 6.68 µM (active)
H4
  EC50: > 120 µM (not active)
A-375
  AC50: 28.9 µM (active)
[15]
  AC50: 8.12 µM (active)
[16]
  IC50: 6.1 µM (active)
[17]
  IC50: 12.6 µM (active)

## CC(C)Oc1ccc(CNC(=S)N/N=C/c2ccc([N+](=O)[O-])cc2)cc1
[12]
  EC50: > 195 µM (not active)
Coagulation factor XII
  IC50: > 50 µM (inactive)
[10]
  Absolute IC50 (CHOP): 10 µM
